{"source": "patent US6455540B1", "about": "“Methods of use of quinolone compounds against anaerobic pathogenic bacteria” (priority 1999, dated 2002)", "key": {"[1]": {"test_system": "Porphyromonas spp. [P. asaccharolytica, P. canoris, P. gingivalis, P. macaccae]", "assay": "Agar dilution MIC, Porphyromonas spp. as a group", "type": "cell-based", "details": "read-out: concentration to which all strains were susceptible (MIC)"}, "Anaerobiospirillum spp.": {"test_system": "Anaerobiospirillum spp.", "assay": "Agar dilution MIC", "type": "cell-based"}, "Fusobacterium naviforme": {"test_system": "Fusobacterium naviforme", "assay": "Agar dilution MIC", "type": "cell-based", "details": "read-out: concentration to which strains were susceptible (MIC)"}, "F. ulcerans": {"test_system": "F. ulcerans", "assay": "Agar dilution MIC", "type": "cell-based", "details": "Fusobacterium ulcerans"}, "Gram-positive anaerobes": {"test_system": "Gram-positive anaerobes", "assay": "Agar dilution activity against Gram-positive anaerobes", "type": "cell-based", "details": "for activity compared with trovafloxacin: Gram-positive strains"}, "Clostridium ramosum": {"test_system": "Clostridium ramosum", "details": "prior study (Goldstein, et al.), 14 isolates; cited from earlier work"}, "peptostreptococci": {"test_system": "peptostreptococci", "details": "cited from earlier work"}, "clostridial isolates": {"test_system": "clostridial isolates", "details": "cited from earlier work"}, "B. thetaiotaomicron": {"test_system": "B. thetaiotaomicron", "details": "Goldstein, et al.; cited from earlier work"}, "[2]": {"test_system": "certain Porphyromonas strains", "details": "Goldstein, et al.; cited from earlier work"}, "[3]": {"details": "Marco, et al., 18 strains of peptostreptococci"}}, "note": "Like-named read-outs stand apart in the source and are kept apart here.", "data": [{"smiles": "CO/N=C1\\CN(c2nc3c(cc2F)c(=O)c(C(=O)O)cn3C2CC2)CC1CN", "note": "(racemic) [Gemifloxacin, (R,S)-7-(3-aminomethyl-4-methoxyiminopyrrolidin-1-yl)-1-cyclopropyl-6-fluoro-4-oxo-1,4-dihydro-1,8-naphthyridine-3-carboxylic acid]", "values": [{"measurement": "MIC", "setting": "[1]", "result": "≤ 0.25", "unit": "µg/mL"}, {"measurement": "MIC90", "setting": "Anaerobiospirillum spp.", "result": "≤ 2", "unit": "µg/mL"}, {"measurement": "MIC", "setting": "Fusobacterium naviforme", "result": "≤ 2", "unit": "µg/mL"}, {"measurement": "MIC90", "setting": "F. ulcerans", "result": "≥ 4", "unit": "µg/mL"}, {"measurement": "activity", "setting": "Gram-positive anaerobes", "result": "good activity"}, {"measurement": "activity compared with trovafloxacin", "setting": "Gram-positive anaerobes", "result": "generally more active than trovafloxacin against Gram-positive strains by one to two dilutions"}, {"measurement": "activity compared with trovafloxacin", "setting": "Gram-positive anaerobes; listed as gemifloxacin", "result": "compared favorably with trovafloxacin"}, {"measurement": "MIC90", "setting": "Clostridium ramosum", "result": 8, "unit": "µg/mL"}, {"measurement": "MIC90", "setting": "peptostreptococci; Cormicon and Jones, 10 strains of peptostreptococci", "result": 2, "unit": "µg/mL"}, {"measurement": "MIC90", "setting": "peptostreptococci; [3]", "result": 2, "unit": "µg/mL"}, {"measurement": "MIC range", "setting": "peptostreptococci; [3]", "result": "0.25 to 8", "unit": "µg/mL"}, {"measurement": "maximum MIC", "setting": "clostridial isolates; Cormicon and Jones, ten clostridial isolates", "result": 2, "unit": "µg/mL"}, {"measurement": "concentration to which all isolates were susceptible (MIC)", "setting": "clostridial isolates; Marco, et al., 19 unspecieted clostridial isolates", "result": "≤ 2", "unit": "µg/mL"}, {"measurement": "activity", "setting": "B. thetaiotaomicron", "result": "only limited activity"}, {"measurement": "activity", "setting": "[2]", "result": "showed activity"}]}]}
